From paper PMC6271231 (Molecules, 2014)
Entries after “also recorded” stand apart in the source; their conditions may differ.

molecular target: NA of A/PR/8/34 (H1N1) (Influenza A virus, UniProt P03468); test: biochemical; type: biochemical, influenza A virus A/PR/8/34 (H1N1)
Sequence (P03468 whole entry): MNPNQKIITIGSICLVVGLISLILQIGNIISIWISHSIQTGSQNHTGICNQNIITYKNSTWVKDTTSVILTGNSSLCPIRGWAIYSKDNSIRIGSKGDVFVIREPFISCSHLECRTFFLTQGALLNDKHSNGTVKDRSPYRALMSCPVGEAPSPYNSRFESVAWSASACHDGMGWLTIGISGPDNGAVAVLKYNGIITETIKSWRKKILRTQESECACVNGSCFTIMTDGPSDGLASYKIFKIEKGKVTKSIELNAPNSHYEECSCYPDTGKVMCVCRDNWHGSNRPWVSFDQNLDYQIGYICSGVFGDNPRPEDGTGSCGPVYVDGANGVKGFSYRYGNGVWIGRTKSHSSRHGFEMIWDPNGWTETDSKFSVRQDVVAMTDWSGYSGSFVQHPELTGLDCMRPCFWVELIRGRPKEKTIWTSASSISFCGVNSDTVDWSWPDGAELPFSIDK

Q: Which IC50 does the source give for O=C(Oc1cc(O)c2c(c1)O[C@H](c1cc(O)c(OC(=O)c3cc(O)c(O)c(O)c3)c(O)c1)CC2)c1cc(O)c(O)c(O)c1 [Compound 4, (−)-7,4'-di-O-galloyltricetiflavan] here?
A: The IC50 was > 67.3 µM.

Q: Which IC50 does the source give for O=C(Oc1cc(O)c2c(c1)OC(c1cc(O)c(O)c(O)c1)C(O)C2)c1cc(O)c(O)c(O)c1 (single isomer, unassigned; (+)) [Compound 3, (+)-3,5,3',4',5'-penta-hydroxyflavan-7-gallate] here?
A: Its IC50 is > 87.3 µM.

Q: With CC1(C)O[C@@H]2Cc3c(O)cc(OC(=O)c4cc(O)c(O)c(O)c4)cc3O[C@@H]2c2cc(O)c(O)c(O)c21 [Compound 1, (2R,3R)-7-O-galloylplumbocatechin A] as the molecule, how does the IC50 read?
A: The IC50 was 59.7 µM.

Q: And the “inhibitory effect against influenza H1N1 virus neuraminidase (in words)” value?
A: Its value is “higher inhibitory activities on NA from influenza H1N1 virus than on those from influenza H3N2 and B viruses; also recorded: moderate inhibitory effects; also recorded: best results”.

Q: With O=C(Oc1cc(O)c2c(c1)O[C@H](c1cc(O)c(O)c(O)c1)CC2)c1cc(O)c(O)c(O)c1 [Compound 2, (−)-5,3',4',5'-tetrahydroxyflavan-7-gallate] as the molecule, how does the IC50 read?
A: The IC50 was 83.4 µM.

Q: And the “inhibitory effect against influenza H1N1 virus neuraminidase (in words)” value?
A: The value was “higher inhibitory activities on NA from influenza H1N1 virus than on those from influenza H3N2 and B viruses; also recorded: moderate inhibitory effects”.
